These results are taken from patent US9681664B2, “Macrocyclic picolinamides as fungicides” (Dow Agrosciences LLC, priority 2012, dated 2017).

What all share (type): in vivo
In test [1] the test system is Mycosphaerella graminicola; Anamorph: Septoria tritici. In words: Leaf blotch of wheat (SEPTTR) disease control on wheat seedlings. To be noted: Zymoseptoria tritici, High volume application, 100 ppm. Summed up:
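Wheat seedlings (Yuma, first leaf emerged) sprayed to run-off with compound in acetone/water with 110 ppm Triton X-100, or track-sprayed as EC with 0.1% Trycol 5941. Septoria tritici spores inoculated before or after treatment. Dew chambers, then 20 °C greenhouse. Percent disease control derived from severity (0–100%) relative to untreated plants.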

The subject of test [2] is Uncinula necator. Description: Grape powdery mildew (UNCINE) disease control. To be noted: Erysiphe necator, 24 h, High volume application, 1 Day Protectant, read-out: UNCINE 1 DP disease control. The procedure:
Technical grades of materials were dissolved in acetone, which were then mixed with nine volumes of water containing 110 ppm Triton X-100. The fungicide solutions were applied onto wheat seedlings using an automated booth sprayer to run-off. All sprayed plants were allowed to air dry prior to further handling. All fungicides were evaluated using the aforementioned method for their activity vs. all target diseases. Wheat leaf blotch and brown rust activity were also evaluated using track spray applications, in which case the fungicides were formulated as EC formulations, containing 0.1% Trycol 5941 in the spray solutions. Grape seedlings (variety Carignane) were grown in soil-less Metro mix, with one plant per pot, and used in the test when approximately one month old. Plants were inoculated 24 hr after fungicide treatment by shaking spores from infected leaves over test plants. Plants were maintained in a greenhouse set at 20° C. until disease was fully developed. Fungicide formulation, application and disease assessment on the sprayed leaves followed the procedures as described in the Example A.

The subject of test [3] is Erysiphe cichoracearum. Description: Powdery mildew of cucumber (ERYSCI) disease control. To be noted: Golovinomyces cichoracearum, 24 h, 1 Day Protectant, high volume, read-out: Disease Control ERYSCI 1 DP. The procedure: Technical grades of materials were dissolved in acetone, which were then mixed with nine volumes of water containing 110 ppm Triton X-100. The fungicide solutions were applied onto wheat seedlings using an automated booth sprayer to run-off. All sprayed plants were allowed to air dry prior to further handling. All fungicides were evaluated using the aforementioned method for their activity vs. all target diseases. Wheat leaf blotch and brown rust activity were also evaluated using track spray applications, in which case the fungicides were formulated as EC formulations, containing 0.1% Trycol 5941 in the spray solutions. Cucumber seedlings (variety Bush Pickle) were grown in soil-less Metro mix, with one plant per pot, and used in the test when 12 to 14 days old. Plants were inoculated with a spore suspension 24 hr following fungicide treatments. After inoculation the plants remained in the greenhouse set at 20° C. until disease was fully expressed. Fungicide formulation, application and disease assessment on the sprayed leaves followed the procedures as described in the Example A.

The test system of test [4] is Cercospora beticola. In words: Leaf spot of sugar beets (CERCBE) disease control. To be noted: 24 h, 1 Day Protectant, high volume, read-out: Disease Control CERCBE 1 DP. The procedure:
Technical grades of materials were dissolved in acetone, which were then mixed with nine volumes of water containing 110 ppm Triton X-100. The fungicide solutions were applied onto wheat seedlings using an automated booth sprayer to run-off. All sprayed plants were allowed to air dry prior to further handling. All fungicides were evaluated using the aforementioned method for their activity vs. all target diseases. Wheat leaf blotch and brown rust activity were also evaluated using track spray applications, in which case the fungicides were formulated as EC formulations, containing 0.1% Trycol 5941 in the spray solutions. Sugar beet plants (variety HH88) were grown in soil-less Metro mix and trimmed regularly to maintain a uniform plant size prior to test. Plants were inoculated with a spore suspension 24 hr after fungicide treatments. Inoculated plants were kept in a dew chamber at 22° C. for 48 hr then incubated in a greenhouse set at 24° C. under a clear plastic hood with bottom ventilation until disease symptoms were fully expressed. Fungicide formulation, application and disease assessment on the sprayed leaves followed the procedures as described in the Example A.

Test [5] relates to Phakopsora pachyrhizi. Description: Asian soybean rust (PHAKPA) disease control. To be noted: topical, high volume. Put shortly:
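Compounds in acetone diluted with nine volumes water containing 0.011% Tween 20, sprayed to run-off on two-week-old Williams 82 soybean seedlings, inoculated 3 days before or 1 day after treatment. Plants held 24 h in dark dew room at 22 °C, 100% RH, then at 23 °C; disease severity scored on sprayed leaves.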

The subject of test [6] is Blumeria graminis f. sp. hordei; Synonym: Erysiphe graminis f. sp. hordei. In words: Barley powdery mildew (ERYSGH) disease control. To be noted: 24 h, 1 Day Protectant, high volume, read-out: Disease Control ERYSGH 1 DP. As for the experimental part: Technical grades of materials were dissolved in acetone, which were then mixed with nine volumes of water containing 110 ppm Triton X-100. The fungicide solutions were applied onto wheat seedlings using an automated booth sprayer to run-off. All sprayed plants were allowed to air dry prior to further handling. All fungicides were evaluated using the aforementioned method for their activity vs. all target diseases. Wheat leaf blotch and brown rust activity were also evaluated using track spray applications, in which case the fungicides were formulated as EC formulations, containing 0.1% Trycol 5941 in the spray solutions. Barley seedlings (variety Harrington) were propagated in soil-less Metro mix, with each pot having 8 to 12 plants, and used in the test when first leaf was fully emerged. Test plants were inoculated by dusting with infected stock plants 24 hr after fungicide treatments. After inoculation the plants were kept in a greenhouse set at 20° C. for disease to develop. Fungicide formulation, application and disease assessment on the sprayed leaves followed the procedures as described in the Example A.

Test [7] concerns Magnaporthe grisea; Anamorph: Pyricularia oryzae. Description: whole plant or invertebrate. Particulars: 24 h, read-out: PYRIOR 1 DP disease control.
The mark [8] stands for this setting: 24 h, 1 Day Protectant, read-out: SEPTTR 1DP disease control.
Where [9] appears, read: 72 h, 3 Day Curative, read-out: SEPTTR 3DC disease control.
Where [10] appears, read: 24 h, 1 Day Protectant, read-out: Disease Control PHAKPA 1DP.
Setting [11] is: 72 h, 3 Day Curative, read-out: Disease Control PHAKPA 3DC.

Where two headings read alike, the source gives them in different places.

Consider `COc1ccnc(C(=O)N[C@H]2CCC[C@H](Oc3ccccc3)[C@@H](Oc3ccccc3)[C@H](C)OC2=O)c1OCOC(C)=O` [F20], for which the pest or weed control at 100 ppm in test [1] (setting [8]) fell in the range of 80 to 100%; in test [1] (setting [9]), 80 to 100%; in test [2], 0 to 80%; in test [3], 0 to 80%; in test [4], 80 to 100%; in test [6], 0 to 80%. Also, the pest or weed control at 100 ppm in test [7] fell in the range of 80 to 100%. Moreover, the pest or weed control at 25 ppm in test [5] (setting [10]) and in test [5] (setting [11]) was 80 to 100% each time.
With `COc1ccnc(C(=O)N[C@H]2CCC[C@H](OCC(C)C)[C@@H](Oc3ccccc3)[C@H](C)OC2=O)c1OCOC(C)=O` [F26], the pest or weed control at 100 ppm in test [1] (setting [8]) was in the range of 80 to 100%; in test [1] (setting [9]), 80 to 100%; in test [2], 0 to 80%; in test [3], 0 to 80%; in test [4] it was 80 to 100%. The pest or weed control at 25 ppm in test [5] (setting [10]) and in test [5] (setting [11]) was 80 to 100% throughout.
On to `COc1ccnc(C(=O)N[C@H]2CCC[C@H](Oc3ccccc3)[C@@H](OCC(C)C)[C@H](C)OC2=O)c1OCOC(C)=O` [F28], for which the pest or weed control at 100 ppm lay in the range of 80 to 100% in test [1] (setting [8]); 80 to 100% in test [1] (setting [9]); 0 to 80% in test [2]; 0 to 80% in test [3]; 80 to 100% in test [4]; 80 to 100% in test [6]. For the same molecule, in test [7], the pest or weed control at 100 ppm lay within 80 to 100%. The pest or weed control at 25 ppm in test [5] (setting [10]) lay within 80 to 100%; in test [5] (setting [11]) it was 0 to 80%.
`COc1ccnc(C(=O)N[C@H]2CCC[C@H](OCC(C)C)[C@@H](OCC(C)C)[C@H](C)OC2=O)c1OCOC(C)=O` [F29]: the pest or weed control at 100 ppm in test [1] (setting [8]), in test [1] (setting [9]), in test [2], in test [3], in test [4] and in test [6] was 80 to 100% in each case. Also, in test [7], the pest or weed control at 100 ppm lay in the range of 80 to 100%. Also, the pest or weed control at 25 ppm in test [5] (setting [10]) is 80 to 100%.
On to `COc1ccnc(C(=O)N[C@H]2CCC[C@H](OCc3ccccc3)[C@@H](OCc3ccccc3)[C@H](C)OC2=O)c1OCOC(C)=O` [F30], for which the pest or weed control at 100 ppm lay within 80 to 100% in test [1] (setting [8]); 0 to 80% in test [1] (setting [9]); 0 to 80% in test [2]; 0 to 80% in test [3]; 0 to 80% in test [4]; 0 to 80% in test [6]. The pest or weed control at 100 ppm in test [7] was in the range of 80 to 100%. For the same molecule, the pest or weed control at 25 ppm in test [5] (setting [10]) fell in the range of 80 to 100%; in test [5] (setting [11]), 0 to 80%.
Regarding `COc1ccnc(C(=O)N[C@H]2CCC[C@H](OCc3ccccc3)[C@@H](Oc3ccccc3)[C@H](C)OC2=O)c1OCOC(C)=O` [F31], the pest or weed control at 100 ppm in test [1] (setting [8]) is 80 to 100%; in test [1] (setting [9]) it was 80 to 100%; in test [2], 0 to 80%; in test [3], under 0%; in test [4] it was 80 to 100%; in test [6], 0 to 80%. The pest or weed control at 100 ppm in test [7] fell in the range of 80 to 100%.
As to `COc1ccnc(C(=O)N[C@H]2CCC[C@H](OCC(C)C)[C@@H](Oc3ccccc3)[C@H](C)OC2=O)c1OCOC(=O)C(C)C` [F34], the pest or weed control at 100 ppm is 80 to 100% in test [1] (setting [8]); 80 to 100% in test [1] (setting [9]); 0 to 80% in test [2]; 0 to 80% in test [3]; 80 to 100% in test [4]; 0 to 80% in test [6]. Besides, the pest or weed control at 100 ppm in test [7] fell in the range of 80 to 100%. For the same molecule, the pest or weed control at 25 ppm in test [5] (setting [10]) and in test [5] (setting [11]) was 80 to 100% throughout.
Consider `COCCC(=O)Oc1c(OC)ccnc1C(=O)N[C@H]1CCC[C@H](Oc2ccccc2)[C@@H](OCCCc2ccccc2)[C@H](C)OC1=O` [F132], for which the pest or weed control at 100 ppm in test [1] (setting [8]) fell in the range of 80 to 100%; in test [1] (setting [9]), 80 to 100%; in test [2] it was 0 to 80%; in test [3] it was 0 to 80%; in test [4], 0 to 80%; in test [6], 0 to 80%. In test [7], the pest or weed control at 100 ppm was 0 to 80%.
For the molecule `COc1ccnc(C(=O)N[C@H]2CCC[C@H](OCCCc3ccccc3)[C@@H](Oc3ccccc3)[C@H](C)OC2=O)c1OC(C)=O` [F134], the pest or weed control at 100 ppm in test [1] (setting [8]) fell in the range of 80 to 100%; in test [1] (setting [9]) it was 80 to 100%; in test [2], 0 to 80%; in test [3], 0 to 80%; in test [4], 80 to 100%; in test [6], 0 to 80%. The pest or weed control at 100 ppm in test [7] lay in the range of 80 to 100%.
As to `COc1ccc(O[C@H]2CCC[C@H](NC(=O)c3nccc(OC)c3OCOC(=O)C(C)C)C(=O)O[C@@H](C)[C@@H]2OC2CCCC2)cc1` [F169], the pest or weed control at 100 ppm in test [1] (setting [8]) fell in the range of 80 to 100%; in test [1] (setting [9]) it was 80 to 100%; in test [2] it was 0 to 80%; in test [3], 80 to 100%; in test [4], 80 to 100%; in test [6] it was 0 to 80%. Moreover, the pest or weed control at 100 ppm in test [7] was 80 to 100%.
Take `COc1ccnc(C(=O)N[C@H]2CCC[C@H](OCCCC(F)(F)F)[C@@H](OC3CCCC3)[C@H](C)OC2=O)c1OCOC(=O)C(C)C` [F171]: the pest or weed control at 100 ppm was 80 to 100% in test [1] (setting [8]); 80 to 100% in test [1] (setting [9]); 0 to 80% in test [2]; 80 to 100% in test [3]; 80 to 100% in test [4]; 0 to 80% in test [6]. Moreover, the pest or weed control at 100 ppm in test [7] fell in the range of 80 to 100%.
Turning to `COc1ccnc(C(=O)N[C@H]2CCC[C@H](OCCCC(F)(F)F)[C@@H](OC3CCCC3)[C@H](C)OC2=O)c1OC(C)=O` [F173], the pest or weed control at 100 ppm in test [1] (setting [8]) is 80 to 100%; in test [1] (setting [9]), 80 to 100%; in test [2], 0 to 80%; in test [3] it was 0 to 80%; in test [4] it was 80 to 100%; in test [6] it was 0 to 80%. Moreover, the pest or weed control at 100 ppm in test [7] was 80 to 100%.
